Measurements published in US5773424A, “Treatment of toxoplasmosis” (priority 1994, dated 1998).
“Also recorded” adds a separate entry of the source. Read-outs that look alike come from different tables or passages of the source.

How the values were obtained:
[1] = system: Toxoplasma gondii grown in human fibroblasts; test: Incorporation of radiolabeled uracil (parasite survival); assay type: cell-based; conditions: for activity at 5 µM / activity at 10 µM / activity at 25 µM / activity at 50 µM: Toxoplasma gondii, Fibroblast, [5,6-3H]uracil incorporation, read-out: percent survival of Toxoplasma gondii grown in human fibroblasts
Method: Incorporation of Radiolabeled Uracil. […] Uptake and incorporation of radiolabeled uracil into nucleic acids of T. gondii were carried out, at least in triplicates, in tissue culture, using monolayers of human foreskin fibroblasts infected with T. gondii. The fibroblasts were cultured in no more than 30 passages in Dulbecco's modified Eagle medium, containing 100 units/mL penicillin G and 100 μg/mL streptomycin sulfate, and 10% FBS, pH 7.2. Briefly, confluent cells (4-5 day incubation) were cultured for 24 hours in the 24-well flat bottom microtiterplates (~5×10^5 /1 mL/well) and incubated at 37° C. in 5% CO2, 95% air to allow the cells to attach. The medium was then removed and the cells were infected with isolated T. gondii in medium with 3% FBS (1 parasite/cell). After 1 hour incubation, the cultures were washed with media with 10% FBS to remove extracellular parasites. FBS was maintained at a final concentration of 10%. […] After an additional 18 hours incubation, the medium was replaced with 1 mL drug free media containing […] (2 μCi/mL) and incubated for another 6 hours, after which the media was removed. The fibroblasts were released from the wells by trypsinization with the addition of 200 μL trypsin/EDTA (2.5×) to each well. After 10 minutes incubation, 1 mL of ice cold 10% trichloroacetic acid (TCA) was added to each well. The plates were then placed on a shaker to insure the detachment of the cells. The suspended contents of each well were filtered through GF/A 2.4 cm glass microfiber filters (Whatman, Hillsboro, Oreg.), which were prewashed each with 1 mL double distilled H2 O and dried. After filtration, the filters were washed with 10 mL methanol, left to dry, and then placed in scintillation vials containing 5 mL of Econo-Safe scintillation fluor (Research Products International Corp., Mount Prospect, Ill.), and radioactivity was counted using an LS5801 Beckman scintillation counter.

[2] = Toxicity of compounds, MTT assay; assay type: cell-based, human; conditions: human, foreskin fibroblasts
Method: (§1) Toxicity of compounds. Toxicity of the different doses of the various analogues were performed at least in triplicates, using a modification of the Microculture Tetrazolium (MTT) assay and uninfected monolayers of human foreskin fibroblasts. Briefly, confluent cells were incubated for at least 24 hours in the 96-well flat bottom microtiterplates (~10^5 /200 μL/well) and incubated at 37° C. in 5% CO2, 95% air to allow the cells to attach. The medium was then replaced with 200 μL of fresh medium. […] The cultures were then incubated for 48 hours, after which 50 μL of sterile MTT solution (2 mg/1 mL PBS) was added to each well. MTT solution was sterilized by filtration through 0.22 μm filters (Costar, Cambridge, Mass.). After 4 hours incubation, the medium was removed and 100 μL of dimethylsulfoxide (DMSO) was added to each well and the plates were shaken gently for 2-3 minutes to dissolve the formed formazan crystals. The absorbance was measured at 540 nm, using a computerized microtiterplate reader (Themomax, Molecular Division)

[3] = system: uninfected human foreskin fibroblasts; test: Toxicity of compounds, MTT assay; assay type: cell-based; conditions: for Toxicity to host cells (human fibroblasts), in words: therapeutic doses (5-50 μM tested)
Method: as §1

[4] = system: extracts from different strains of Toxoplasma; test: Conversion of NBMPR to NBMPR-P in the presence of ATP or PRPP by extracts of different strains; assay type: biochemical, Toxoplasma gondii
Method: Maintenance of T. gondii. The wild type RH, the adenosine kinase deficient mutant ara-A^R (R), and the phosphoribosyltransferase deficient mutants (HGPRT^- and Tnx^R-1) strains of T. gondii were propagated by intraperitoneal passage in female CD1 mice (20-25 g). Mice were injected intraperitoneally (i.p.) with an inoculum (10^6 cells) of T. gondii contained in 0.2 ml of sterile phosphate buffered saline (PBS), pH 7.2, and were sacrificed after 2-3 days by inhalation of ether. The parasites were harvested from the peritoneal cavity by injection, aspiration and reinjection of 3-5 mL of PBS (2-3 times). The peritoneal fluid was examined microscopically to determine the concentration of T. gondii and to ascertain the extent of contamination by host cells.
Enzyme assay. […] Incubation was carried out at 37° C.
Phosphoribosyltransferase activity was measured by following the formation of [^3 H] NMMPR-P from [^3 H] NBMPR and 5-phosphoribosyl-1-pyrophosphate (PRPP). The standard reaction mixtures contained 50 mM Tris-Cl (pH 7.4), 10 μM [^3 H] NBMPR (55 Ci/mol), 4 mM PRibPP, 20 mM MgCl2, 50 mM KCI, and 50 μl of enzyme extract (4-8 μg of protein) in a final volume of 100 μl. Reactions were incubated at 37° C. and terminated in boiling water bath for 2 minutes. Precipitated proteins were removed by centrifugation. A 10 μl aliquot of the resulting supernatant was spotted on cellulose thin layer chromatography plates which were developed with 5% dibasic potassium phosphate. The average Rf values were as follows: NBMPR, 0.28; NBMP, 0.16; NBMPR-P, 0.44. The radioactivity was quantified using a Berthold TLC Linear Analyzer (Wallac, Inc., Gaithersburg, Md.). All assays were run under conditions in which velocity was linear with respect to time and amount of enzyme extract. Enzyme velocity was calculated by multiplying the fraction of nucleotide formed from nucleoside by the amount of nucleoside in the assay divided by the incubation time. Specific activity was estimated by dividing enzyme velocity by the amount of protein in the assay.

[5] = system: Toxoplasma gondii grown in human fibroblasts; test: Plaque formation in human fibroblasts; assay type: cell-based; conditions: control (0 μM) 21 ± 3.5
Description: To investigate the effect of metabolizing NBMPR on the survival of T. gondii, the number and size of plaque formation by T. gondii on human fibroblasts was investigated. NBMPR decreased the number and size of toxoplasma in human fibroblasts (Table 13).

[6] = system: extracts of Toxoplasma gondii; conditions: 50 µM; for Percent conversion of NBMPR to NBMP: t. gondii extract; for Percent conversion of NBMPR to NBMPR-P / Percent conversion of NBMPR to nucleobase (NBMP): toxoplasma gondii
Method: (§2) Preparation of extracts. Extracts of T. gondii were prepared by homogenizing parasites or tissues in ice cold (3:1, v/w) 50 mM Tris-Cl buffer (pH 7.4) containing 1 mM EDTA, 1 mM dithiothreitol with a polytron homogenizer (Brinkmann, Westbury, N.Y.) and the homogenates were centrifuged at 105,000×g for 1 hour at 4° C. The supernatant fluids (cytosol) were collected and used as the enzyme source.
(§3) Conversion assays. To measure the percent conversion of NBMPR to NBMPR-P and nucleobase (NBMP) by extracts of Toxoplasma gondii and mouse spleen, 50 mM Tris-Cl (pH 7.4), 5 mM MgCl2, 2.5 mM ATP, 5 mM creatine phosphate, creatine phosphokinase, 50 μM [^3 H-(G)] NBMPR (1.95 μCi/nmol), and 10 μl of cytosol extract were reacted in a final volume of 20 μl and incubated at 37° C. Reaction was initiated by addition of extract and terminated by boiling for 3 minutes. In a second reaction, 25 mM KCN was added to the reaction mixture.
(§4) The plates for the assays of NBMPR were developed in n-butanol/ethyl acetate/NH4 /methanol (49:28:28:21, v/v/v/v). The Rf values were: NBMPR, 0.76; NBMPR-P, 0.50; NBMP, 0.89. The amounts of radioactivity in the substrate (nucleoside) and product (nucleobase and nucleotides) were calculated on a percentage basis using a Berthold LB-284 Automatic TLC-Linear Analyzer.

extracts of mouse spleen = conditions: spleen cytosol extract, 50 µM
Method: as §2, §3, §4

[7] = system: Toxoplasma gondii RH strain tachyzoites; test: Chemotherapy of Toxoplasma-infected mice; assay type: in vivo
Method: Chemotherapy of Toxoplasma-Infected Mice. Female CD-1 mice, approximately 22 g (Charles River Laboratories, Wilmington, Mass.), were infected with 200 RH strain tachyzoites/mouse by i.p. injection. The treatment group received 100 mg/kg NBMPR-P i.p. injections every 8 hours on Days 0, 2, 4 and 5, in proportion of 0.1 ml/10 g. Mice were maintained under controlled temperature (25° C.) and light (12/12 hours, light/dark), food and water ad libitum, and survival was monitored daily.
Each mouse was infected with 200 tachyzoites and the treatment group received 100 mg/kg NBMPR-P i.p. injections every 8 hours on Days 0, 2, 4 and 5 in proportion of 0.1 ml/10 g. The survivorship of the treated mice can be improved by manipulation of the dose and regimen of NBMPR.

[8] = 5 μM, MTT, 48 hours, read-out: percent survival of uninfected human fibroblasts
[9] = 10 μM, MTT, 48 hours, read-out: percent survival of uninfected human fibroblasts
[10] = 25 μM, MTT, 48 hours, read-out: percent survival of uninfected human fibroblasts
[11] = 50 μM, MTT, 48 hours, read-out: percent survival of uninfected human fibroblasts
[12] = survivors/total, 100 mg/kg i.p. every 8 hours on Days 0, 2, 4 and 5

OC[C@H]1O[C@@H](n2cnc3c(NCc4ccccc4)ncnc32)[C@H](O)[C@@H]1O [Compound 45, N^6 -Benzyladenosine]
activity at 5 µM [1]: 62.8%
activity at 10 µM [1]: 41.8%
activity at 25 µM [1]: 52.9%
activity at 50 µM [1]: 26.3%
viability at 48 h, 5 µM [2, 8]: 46.3%
viability at 48 h, 10 µM [2, 9]: 21.8%
viability at 48 h, 25 µM [2, 10]: 36.5%
viability at 48 h, 50 µM [2, 11]: 31%
Toxicity to host cells (human fibroblasts), in words [3]: toxic to host cells at therapeutic doses

O=[N+]([O-])c1ccc(CSc2ncnc3c2ncn3[C@@H]2O[C@H](CO)[C@@H](O)[C@H]2O)cc1 [Compound 21, 6-(p-Nitrobenzyl)mercaptopurine riboside (NBMPR)]
Percent conversion of NBMPR to NBMPR-P ([4]; strain Ara-A^R, +ATP): 0%
Percent conversion of NBMPR to NBMPR-P ([4]; strain Ara-A^R, +PRPP): 3.8 ± 0.2%
Percent conversion of NBMPR to NBMPR-P ([4]; strain HGPRT^-, +ATP): 2.6 ± 1.3%
Percent conversion of NBMPR to NBMPR-P ([4]; strain HGPRT^-, +PRPP): 0%
Percent conversion of NBMPR to NBMPR-P ([4]; strain RH, +ATP): 0.7 ± 0.2%
Percent conversion of NBMPR to NBMPR-P ([4]; strain RH, +PRPP): 4.3 ± 0.3%
Percent conversion of NBMPR to NBMPR-P ([4]; strain Thx^R-1, +ATP): 2.0 ± 0.6%
Percent conversion of NBMPR to NBMPR-P ([4]; strain Thx^R-1, +PRPP): 0%
Number of Plaques ([5]; NBMPR 33 μM): 23 ± 0.7
Number of Plaques ([5]; NBMPR 100 μM): 3 ± 1.4
activity at 5 µM [1]: 74.3%
activity at 10 µM [1]: 55.5%
activity at 25 µM [1]: 23.1%
activity at 50 µM [1]: 6.7%
viability at 48 h, 5 µM [2]: 98.8%
viability at 48 h, 10 µM [2]: 97.1%
viability at 48 h, 25 µM [2]: 96.3%
viability at 48 h, 50 µM [2]: 95.4%
Percent conversion of NBMPR to NBMP ([6]; 0.25 h): 0.9 ± 0.3%
Percent conversion of NBMPR to NBMP ([6]; 0.5 h): 2.8 ± 3.8%
Percent conversion of NBMPR to NBMP ([6]; 1 h): 4.0 ± 1.3%
Percent conversion of NBMPR to NBMP ([6]; 2 h): 9.5 ± 1.3%
Percent conversion of NBMPR to NBMP ([6]; 4 h): 14.3 ± 3.3%
Percent conversion of NBMPR to NBMPR-P ([6]; cytosol extract with kcn, 0.25 h): 0.5 ± 0.1%
Percent conversion of NBMPR to NBMPR-P ([6]; cytosol extract with kcn, 0.5 h): 1.1 ± 0.1%
Percent conversion of NBMPR to NBMPR-P ([6]; cytosol extract with kcn, 1 h): 3.7 ± 2.5%
Percent conversion of NBMPR to NBMPR-P ([6]; cytosol extract with kcn, 2 h): 5.8 ± 0.7%
Percent conversion of NBMPR to NBMPR-P ([6]; cytosol extract with kcn, 4 h): 11.8 ± 4.8%
Percent conversion of NBMPR to NBMPR-P ([6]; cytosol extract, 0.25 h): 2.1 ± 0.5%
Percent conversion of NBMPR to nucleobase (NBMP) ([6]; cytosol extract, 0.25 h): 8.0 ± 0.4%
Percent conversion of NBMPR to NBMPR-P ([6]; cytosol extract, 0.5 h): 3.2 ± 0.4%
Percent conversion of NBMPR to nucleobase (NBMP) ([6]; cytosol extract, 0.5 h): 7.8 ± 3.7%
Percent conversion of NBMPR to NBMPR-P ([6]; cytosol extract, 1 h): 7.8 ± 1.5%
Percent conversion of NBMPR to nucleobase (NBMP) ([6]; cytosol extract, 1 h): 14.8 ± 1.2%
Percent conversion of NBMPR to NBMPR-P ([6]; cytosol extract, 2 h): 9.4 ± 1.0%
Percent conversion of NBMPR to nucleobase (NBMP) ([6]; cytosol extract, 2 h): 9.4 ± 2.8%
Percent conversion of NBMPR to NBMPR-P ([6]; cytosol extract, 4 h): 15.1 ± 4.4%
Percent conversion of NBMPR to nucleobase (NBMP) ([6]; cytosol extract, 4 h): 10.4 ± 6.2%
Percent conversion of NBMPR to NBMPR-P (extracts of mouse spleen; 0.25 h): 0%
Percent conversion of NBMPR to nucleobase (NBMP) (extracts of mouse spleen; 0.25 h): 0%
Percent conversion of NBMPR to NBMPR-P (extracts of mouse spleen; 0.5 h): 0%
Percent conversion of NBMPR to nucleobase (NBMP) (extracts of mouse spleen; 0.5 h): 0%
Percent conversion of NBMPR to NBMPR-P (extracts of mouse spleen; 1 h): 0%
Percent conversion of NBMPR to nucleobase (NBMP) (extracts of mouse spleen; 1 h): 0%
Percent conversion of NBMPR to NBMPR-P (extracts of mouse spleen; 2 h): 0%
Percent conversion of NBMPR to nucleobase (NBMP) (extracts of mouse spleen; 2 h): 0%
Percent conversion of NBMPR to NBMPR-P (extracts of mouse spleen; 4 h): 0%
Percent conversion of NBMPR to nucleobase (NBMP) (extracts of mouse spleen; 4 h): 0%

O=[N+]([O-])c1ccc(CSc2ncnc3c2ncn3[C@@H]2O[C@H](COP(=O)(O)O)[C@@H](O)[C@H]2O)cc1 [NBMPR-P, 6-[4-nitrobenzylthio]-9-β-D-ribofuranosyl purine 5'-monophosphate]
activity at 5 µM [1]: 75.3%
activity at 10 µM [1]: 53.3%
activity at 25 µM [1]: 21.4%
activity at 50 µM [1]: 10.2%
Effect on T. gondii grown in human fibroblasts, in words ([1]; in vitro): inhibited; also recorded: kill T. gondii grown in human fibroblasts in a dose dependent manner; also recorded: effectively eliminate T. gondii parasites
viability at 48 h, 5 µM [2, 8]: 103%
viability at 48 h, 10 µM [2, 9]: 94.6%
viability at 48 h, 25 µM [2, 10]: 93.6%
viability at 48 h, 50 µM [2, 11]: 96.1%
Effect on host (mammalian) cells, in words ([3]; doses up to 100 μM): did not affect host cells; also recorded: without affecting mammalian cells
Toxicity to host cells (human fibroblasts), in words [3]: no significant toxic effect
life span of infected mice ([7]; increased from 6 days without treatment): 8 days
Survival Day 7 [7, 12]: 3/3
Survival Day 8 [7, 12]: 2/3
Survival Day 9 [7, 12]: 0/3
Survival Day 6 ([7]; survivors/total, 100 mg/kg i.p. every 8 hours on Days 0, 2, 4 and 5, untreated 0/3): 3/3
